Reference: US10035790B2, “RORγ modulators” (BRISTOL-MYERS SQUIBB COMPANY, priority 2012, dated 2018)

Biological target: T1, ligand binding domain of human RORγ (A262-S507) (Homo sapiens, UniProt P51449)
T1 construct: made in house; host or cells: E. coli
T1 sequence (P51449 262-507): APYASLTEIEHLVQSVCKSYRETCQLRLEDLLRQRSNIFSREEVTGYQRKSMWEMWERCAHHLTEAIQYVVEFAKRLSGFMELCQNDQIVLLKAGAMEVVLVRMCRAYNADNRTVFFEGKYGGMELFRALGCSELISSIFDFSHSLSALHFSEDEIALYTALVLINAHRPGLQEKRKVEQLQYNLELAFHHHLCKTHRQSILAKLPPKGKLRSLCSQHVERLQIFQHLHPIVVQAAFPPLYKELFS
Assay: General RORγ SPA binding assay (competition with [3H]25-hydroxycholesterol)
Conditions: RORγ SPA binding assay, inhibition of [3H]25-hydroxycholesterol binding; read-out: IC50
Procedure: Example 2 General RORγ SPA Binding Assay
The binding of potential ligands to RORγ is measured by competition with [^3H]25-hydroxycholesterol using a scintillation proximity assay (SPA) binding assay. The ligand binding domain of human RORγ (A262-S507) with an N-terminal His tag is expressed in E. coli and purified using nickel affinity chromotography. 50 nM RORγ (A262-S507) is incubated with test compound at varying concentrations for 15 min at room temperature in PBS buffer containing 0.5% fatty acid free BSA. […] of [^3H]25-hydroxycholesterol is then added, and the reaction is incubated for 15 min. 4 mg/mL of Ysi Copper HIS-TAG SPA Beads (Perkin Elmer) are added, and the mixture is incubated for 30 min. The reaction is read on a MicroBeta Trilux scintillation plate reader (Perkin Elmer). IC50 values are determined from the percentage inhibition of [^3H]25-hydroxycholesterol binding.

IC50 [nM]	Structure (SMILES)
3720	Cc1ncc(C(=NOc2cccc(F)c2)C(F)(F)F)c(C2CCN(C(=O)Cc3c(F)cccc3F)CC2)n1 (mixture of isomers) [Compound B29, (Z)-2-(2,6-Difluorophenyl)-1-(4-(2-methyl-5-(2,2,2-trifluoro-1-(3-fluorophenoxyimino)ethyl)pyrimidin-4-yl)piperidin-1-yl)ethanone]
334	CSc1ncc(C(C)=NOc2ccnc(C(F)(F)F)c2)c(C2CCN(C(=O)Nc3c(F)cccc3F)CC2)n1 (mixture of isomers) [Compound B52, N-(2,6-Difluorophenyl)-4-{2-(methylthio)-5-[(1E)-N-{[2-(trifluoromethyl)pyridin-4-yl]oxy}ethanimidoyl]pyrimidin-4-yl}piperidine-1-carboxamide]
6.2	Cc1cc(C)cc(COC(C)(COC[C@H](O)CO)c2cnc(C)nc2C2CCN(C(=O)Cc3c(F)cccc3F)CC2)c1 (mixture of isomers) [Compound E9, 2-(2,6-Difluorophenyl)-1-(4-(5-(1-((R)-2,3-dihydroxypropoxy)-2-(3,5-dimethylbenzyloxy)propan-2-yl)-2-methylpyrimidin-4-yl)piperidin-1-yl)ethanone]
46	Cc1cc(C)cc(CC=Cc2cnc(C)nc2C2CCN(C(=O)Cc3c(F)cccc3F)CC2)c1 (mixture of isomers) [Compound J1, (E)-2-(2,6-Difluorophenyl)-1-(4-(5-(3-(3,5-dimethylphenyl)prop-1-enyl)-2-methylpyrimidin-4-yl)piperidin-1-yl)ethanone]
4.1	Cc1cc(C)cc(COC(C)(COC[C@H](O)CO)c2cnc(C)nc2C2CCN(C(=O)Cc3c(F)cccc3F)CC2)c1 (stereo in doubt) [Compound E8, 2-(2,6-Difluorophenyl)-1-(4-(5-(1-(2,3-dihydroxypropoxy)-2-(3,5-dimethylbenzyloxy)propan-2-yl)-2-methylpyrimidin-4-yl)piperidin-1-yl)ethanone]
4.7	Cc1cc(C)cc(CNC(=O)c2cnc(C)nc2C2CCN(C(=O)Cc3c(F)cccc3F)CC2)c1 [Compound A1]
6.8	Cc1ncc(C(=O)NCc2ccc(Cl)c(Cl)c2)c(C2CCN(C(=O)Cc3c(F)cccc3F)CC2)n1 [Compound A2, N-(3,4-dichlorobenzyl)-4-(1-(2-(2,6-difluorophenyl)acetyl)piperidin-4-yl)-2-methylpyrimidine-5-carboxamide]
7.2	Cc1cc(C)cc(CNC(=O)c2cnc(C)nc2C2CCN(C(=O)Cc3c(F)cccc3Cl)CC2)c1 [Compound A3, 4-(1-(2-(2-chloro-6-fluorophenyl)acetyl)piperidin-4-yl)-N-(3,5-dimethylbenzyl)-2-methylpyrimidine-5-carboxamide]
7.8	Cc1cc(C)cc(CNC(=O)c2cnc(C)nc2C2CCN(C(=O)Cc3c(F)cccc3C(F)(F)F)CC2)c1 [Compound A4, N-(3,5-dimethylbenzyl)-4-(1-(2-(2-fluoro-6-(trifluoromethyl)phenyl)acetyl)piperidin-4-yl)-2-methylpyrimidine-5-carboxamide]
8.9	Cc1cc(C)cc(CNC(=O)c2cnc(C)nc2C2CCN(C(=O)Cc3ccccc3C(F)(F)F)CC2)c1 [Compound A5, N-(3,5-dimethylbenzyl)-2-methyl-4-(1-(2-(2-(trifluoromethyl)phenyl)acetyl)piperidin-4-yl)pyrimidine-5-carboxamide]
26.4	O=C(NCc1ccc(Cl)c(Cl)c1)c1cncnc1C1CCN(C(=O)Cc2c(F)cccc2Cl)CC1 [Compound A6, 4-(1-(2-(2-chloro-6-fluorophenyl)acetyl)piperidin-4-yl)-N-(3,4-dichlorobenzyl)pyrimidine-5-carboxamide]
28.1	Cc1cc(C)cc(CNC(=O)c2cnc(C)nc2C2CCN(C(=O)Cc3ccccc3Cl)CC2)c1 [Compound A7, 4-(1-(2-(2-chlorophenyl)acetyl)piperidin-4-yl)-N-(3,5-dimethylbenzyl)-2-methylpyrimidine-5-carboxamide]
29.4	Cc1cc(C)cc(CNC(=O)c2cnc(C)nc2C2CCN(C(=O)c3c(F)cccc3Cl)CC2)c1 [Compound A8, 4-(1-(2-chloro-6-fluorobenzoyl)piperidin-4-yl)-N-(3,5-dimethylbenzyl)-2-methylpyrimidine-5-carboxamide]
31.6	Cc1cc(C)cc(CNC(=O)c2cnc(C)nc2C2CCN(C(=O)Cc3ccccc3OC(F)(F)F)CC2)c1 [Compound A9, N-(3,5-dimethylbenzyl)-2-methyl-4-(1-(2-(2-(trifluoromethoxy)phenyl)acetyl)piperidin-4-yl)pyrimidine-5-carboxamide]
33.1	COc1ccccc1CC(=O)N1CCC(c2nc(C)ncc2C(=O)NCc2cc(C)cc(C)c2)CC1 [Compound A10, N-(3,5-dimethylbenzyl)-4-(1-(2-(2-methoxyphenyl)acetyl)piperidin-4-yl)-2-methylpyrimidine-5-carboxamide]
49	Cc1cc(C)cc(CNC(=O)c2cnc(C)nc2C2CCN(C(=O)Cc3ccccc3C)CC2)c1 [Compound A11, N-(3,5-dimethylbenzyl)-2-methyl-4-(1-(2-(o-tolyl)acetyl)piperidin-4-yl)pyrimidine-5-carboxamide]
50	Cc1cc(C)cc(CNC(=O)c2cnc(C)nc2C2CCN(C(=O)Cc3ccccc3F)CC2)c1 [Compound A12, N-(3,5-dimethylbenzyl)-4-(1-(2-(2-fluorophenyl)acetyl)piperidin-4-yl)-2-methylpyrimidine-5-carboxamide]
52	Cc1ncc(C(=O)NCc2ccc(Cl)c(Cl)c2)c(C2CCN(C(=O)Cc3c(F)ccc(F)c3F)CC2)n1 [Compound A13, N-(3,4-dichlorobenzyl)-2-methyl-4-(1-(2-(2,3,6-trifluorophenyl)acetyl)piperidin-4-yl)pyrimidine-5-carboxamide]
66	Cc1cc(C)cc(CNC(=O)c2cnc(C)nc2C2CCN(C(=O)Cc3cc(F)ccc3F)CC2)c1 [Compound A14, 4-(1-(2-(2,5-difluorophenyl)acetyl)piperidin-4-yl)-N-(3,5-dimethylbenzyl)-2-methylpyrimidine-5-carboxamide]
70	Cc1cc(C)cc(CNC(=O)c2cnc(C)nc2C2CCN(C(=O)Cc3ccccc3[N+](=O)[O-])CC2)c1 [Compound A15, N-(3,5-dimethylbenzyl)-2-methyl-4-(1-(2-(2-nitrophenyl)acetyl)piperidin-4-yl)pyrimidine-5-carboxamide]
89	Cc1cc(C)cc(CNC(=O)c2cnc(C)nc2C2CCN(C(=O)[C@H](C)c3ccccc3)CC2)c1 [Compound A16, (R)-N-(3,5-dimethylbenzyl)-2-methyl-4-(1-(2-phenylpropanoyl)piperidin-4-yl)pyrimidine-5-carboxamide]
124	Cc1cc(C)cc(CNC(=O)c2cnc(C)nc2C2CCN(C(=O)Cc3cccc(F)c3F)CC2)c1 [Compound A18, 4-(1-(2-(2,3-difluorophenyl)acetyl)piperidin-4-yl)-N-(3,5-dimethylbenzyl)-2-methylpyrimidine-5-carboxamide]
155	Cc1cc(C)cc(CNC(=O)c2cnc(C)nc2C2CCN(C(=O)Cc3cccc4ccccc34)CC2)c1 [Compound A19, N-(3,5-dimethylbenzyl)-2-methyl-4-(1-(2-(naphthalen-1-yl)acetyl)piperidin-4-yl)pyrimidine-5-carboxamide]
